Measurements reported in patent US20250197368A1 (priority 2020, published 2025).

Key:
human α2β3γ2 GABAARs = assay: In vitro electrophysiological recording assay (automated patch-clamp), α2-GABAAR relative efficacy; type: cell-based; details: % efficacy normalised to diazepam; GABA EC10-20; concentration generally >= 100 times Ki
In short: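 Automated whole-cell patch clamp at 20-22° C on L(tk^−) cells (QPatch, −65 mV) or HEK293 cells (SyncroPatch, −80 mV) stably expressing the human receptor. Compound pre-applied ≥1 min, then co-applied with GABA EC10-20; % potentiation of leak-corrected peak current, normalised to diazepam, typically at ≥100× Ki.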

[1] = molecular target: human α2β3γ2 GABAARs (benzodiazepine site) (Homo sapiens (Human), UniProt P18507+P47869); assay: In vitro radioligand binding assay ([3H]Ro15-1788 displacement), α2-GABAAR Ki
In short: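 Membranes from dexamethasone-induced mouse L(tk−) cells stably expressing the human receptor were incubated 1 h at 4° C with 4 nM [3H]Ro15-1788 and graded compound; nonspecific binding with 1-3 μM TP003. Filter-bound radioactivity counted; Ki from IC50 by Cheng-Prusoff using the measured radioligand Kd.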

[2] = molecular target: human α3β3γ2 GABAARs (benzodiazepine site) (Homo sapiens (Human), UniProt P18507+P34903); assay: In vitro radioligand binding assay ([3H]Ro15-1788 displacement), α3-GABAAR Ki; details: L(tk-) cell membranes, 4 nM [3H]Ro15-1788
Experimental: The affinity (Ki) of compounds for the benzodiazepine site of human recombinant GABAARs was measured by their ability to inhibit the binding of the selective benzodiazepine antagonist [^3H]Ro15-1788 ([^3H] flumazenil).
Mouse L(tk^−) cells stably expressing human α1β3γ2, α2β3γ2, α3β3γ2, α5β3γ2 GABAARs were generated by transfection of the individual subunits in the dexamethasone-inducible expression vector pMSGneo in mouse L(tk^−) cells (Hadingham et al., 1993, Mol. Pharmacol. 43:970-975 and 1993, Mol. Pharmacol. 44:1211-1218).
L(tk^−) cells stably expressing human α1β3γ2, α2β3γ2, α3β3γ2, α5β3γ2 GABAARs were maintained in DMEM F12 medium supplemented with 10% Foetal Bovine Serum, 1% Penicillin/Streptomycin and 1 mg/mL Geneticin G418 in an incubator at 37° C. with a humidified atmosphere with 5% CO2. Dexamethasone was added to the culture medium to induce GABAAR expression.
L(tk−) cells were harvested and membranes were prepared for each receptor combination in either TE buffer (10 mM Tris·CI/0.1 mM EDTA, pH 7.5) or phosphate buffer (K2PO4 10 mM, pH 7.0) (Hadingham et al. (1992) Proc. Natl. Acad. Sci. USA; 89 (14): 6378-82). Protein concentration, receptor expression and the Kd of [^3H]Ro15-1788 were determined before Ki value of the compounds were evaluated. For Kd evaluation, saturation binding curves were obtained by incubating membrane with various concentrations of [^3H]Ro15-1788 (82.5 Ci/mM), with nonspecific binding measured in the presence of 1-3 μM TP003.
For Ki evaluation, cell membranes were incubated with 4 nM [^3H]Ro15-1788 along with a range of concentrations of test compound. Nonspecific binding was determined using 1-3 μM TP003. All incubations were performed for 1 hour at 4° C. in assay buffer. The total assay volume was 0.5 mL, containing 40 μg/well α1β3γ2, 30 μg/well α2β3γ2, 40 μg/well α3β3γ2 and 30 μg/well for α5β3γ2 of membrane protein. Incubations were terminated by filtration and washing with ice cold Tris-HCl buffer (50 mM, pH=7.4) over Whatman GF/B filters and the radioactivity of the filters was measured using liquid scintillation counting.
The % inhibition of [^3H]Ro15-1788 binding was plotted as a function of compound concentration and the IC50 calculated. From the IC50, the affinity (Ki) was calculated using the method of Cheng and Prusoff using the Kd values obtained for [^3H]Ro15-1788.

human α3β3γ2 GABAARs = assay: In vitro electrophysiological recording assay (automated patch-clamp), α3-GABAAR relative efficacy; type: cell-based; details: % efficacy normalised to diazepam; GABA EC10-20; concentration generally >= 100 times Ki
Experimental: The efficacy of modulators was evaluated using the automated patch-clamp platforms QPatch16 (Sophion, Copenhagen, Denmark) or SyncroPatch 384PE (Nanion, Germany).
For QPatch electrophysiology testing L(tk^−) cells stably expressing human α1β3γ2, α2β3γ2, α3β3γ2, α5β3γ2 GABAARs were used. HEK293 cells stably expressing human α1β3γ2L, α2β3γ2L, α3β3γ2L and α5β3γ2L GABAARs were used for the SyncroPatch 384PE experiments.
All experiments were carried out at room temperature (20-22° C.) using a standard whole cell procedure and physiological solutions. Gigaseals were formed upon execution of a combined suction/voltage protocol with subsequent increased suction leading to the whole-cell configuration.
The currents recorded were acquired at either 1 KHz or 2 KHz and filtered using a Bessel filter. Whole-cell currents were measured at a holding potential of-65 mV (QPatch) or −80 mV (SyncroPatch).
For QPatch experiments, the extracellular solution contained of: 145 mM NaCl, 4 mM KCl, 1 mM MgCl2, 2 mM CaCl2), 10 mM HEPES, 10 mM D-glucose (pH 7.4), and the intracellular solution consisted of: 96 mM KCl, 28 mM CsCl, 25 mM KOH, 4.3 mM CaCl2), 1.4 mM MgCl2, 10 mM EGTA, 10 mM HEPES, 3 mM MgATP (pH 7.2). The osmolarities of the extracellular and intracellular solutions were 305 and 295 mOsm respectively.
For SyncroPatch experiments, the extracellular recording solution contained: 140 mM NaCl, 4 mM KCl, 2 mM CaCl2), 1 mM MgCl2, 10 mM HEPES, 5 mM glucose (pH 7.4 with NaOH and osmolarity of c. 300-310 mOsm). The intracellular recording solution consisted of: 90 mM KCl, 50 mM KF, 1.5 mM MgCl2, 11.1 mM EGTA and 10 mM HEPES (pH 7.2 with KOH and osmolarity of c. 300 mOsm). 2 mM of NaATP was added to the intracellular solution on the day of testing.
The effects of modulators were evaluated in the presence of a submaximal GABA concentration, giving typically less than 30% activation of the response elicited by a saturating GABA concentration. To check and ensure baseline current stability before compound addition, two to five consecutive applications of GABA EC10-20 separated by wash steps were performed before compound addition. The test compound was applied 1 min at least prior to co-application with GABA EC10-20. Following a further wash step, a saturating concentration of GABA was applied at the end of each recording, allowing the accurate evaluation for each cell of the percentage baseline activation elicited by the submaximal GABA applied.
The compounds were first dissolved in DMSO as a 10 mM stock and then further diluted to the testing concentrations so that the final DMSO concentration in the extracellular recording solution was 0.1% (QPatch) or 0.2% (SyncroPatch).
The % efficacy of modulators was determined from the GABA elicited currents recorded in the presence and absence of the test compound, using the formula:
[((compound peak current−leak)−(GABA peak current-leak))/(GABA peak current−leak)]*100,
where ‘leak’ is the leak baseline current at the holding potential, ‘compound peak current’ is the current elicited by co-application of compound and GABA, and ‘GABA peak current’ is the current elicited by GABA alone at the last GABA application before compound addition. The results were presented as ‘relative efficacy’ for each compound generally at a concentration equal or higher than 100 times their determined Ki. The relative efficacy of a compound was calculated by normalising its % efficacy to the corresponding % efficacy of diazepam that was separately determined.

Sequence of human α2β3γ2 GABAARs (benzodiazepine site) (P47869 29-451): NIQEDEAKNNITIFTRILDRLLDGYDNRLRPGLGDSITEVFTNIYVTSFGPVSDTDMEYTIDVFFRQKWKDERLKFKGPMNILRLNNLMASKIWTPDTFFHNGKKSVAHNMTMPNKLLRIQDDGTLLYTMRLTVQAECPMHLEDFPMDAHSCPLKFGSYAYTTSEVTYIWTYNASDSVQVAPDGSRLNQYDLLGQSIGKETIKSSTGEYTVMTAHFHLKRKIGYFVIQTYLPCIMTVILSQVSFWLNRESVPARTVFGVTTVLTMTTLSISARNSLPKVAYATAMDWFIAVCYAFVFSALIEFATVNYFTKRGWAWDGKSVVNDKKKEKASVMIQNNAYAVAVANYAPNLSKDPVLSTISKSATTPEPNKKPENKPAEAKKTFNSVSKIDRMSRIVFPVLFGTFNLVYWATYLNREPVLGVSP
Sequence of human α2β3γ2 GABAARs (benzodiazepine site) (P28472 26-473 partner): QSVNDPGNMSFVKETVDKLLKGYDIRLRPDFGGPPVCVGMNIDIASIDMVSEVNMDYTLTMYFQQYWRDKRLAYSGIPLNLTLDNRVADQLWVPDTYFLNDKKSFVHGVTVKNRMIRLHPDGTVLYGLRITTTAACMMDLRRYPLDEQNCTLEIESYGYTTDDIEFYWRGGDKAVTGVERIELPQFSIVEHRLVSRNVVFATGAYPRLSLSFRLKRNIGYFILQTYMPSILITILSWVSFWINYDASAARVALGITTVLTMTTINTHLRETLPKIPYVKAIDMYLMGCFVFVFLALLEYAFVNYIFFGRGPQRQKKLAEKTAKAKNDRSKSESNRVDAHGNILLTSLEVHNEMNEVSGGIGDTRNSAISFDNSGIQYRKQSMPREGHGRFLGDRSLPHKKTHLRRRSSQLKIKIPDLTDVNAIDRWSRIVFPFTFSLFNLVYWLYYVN
Sequence of human α2β3γ2 GABAARs (benzodiazepine site) (P18507 40-475): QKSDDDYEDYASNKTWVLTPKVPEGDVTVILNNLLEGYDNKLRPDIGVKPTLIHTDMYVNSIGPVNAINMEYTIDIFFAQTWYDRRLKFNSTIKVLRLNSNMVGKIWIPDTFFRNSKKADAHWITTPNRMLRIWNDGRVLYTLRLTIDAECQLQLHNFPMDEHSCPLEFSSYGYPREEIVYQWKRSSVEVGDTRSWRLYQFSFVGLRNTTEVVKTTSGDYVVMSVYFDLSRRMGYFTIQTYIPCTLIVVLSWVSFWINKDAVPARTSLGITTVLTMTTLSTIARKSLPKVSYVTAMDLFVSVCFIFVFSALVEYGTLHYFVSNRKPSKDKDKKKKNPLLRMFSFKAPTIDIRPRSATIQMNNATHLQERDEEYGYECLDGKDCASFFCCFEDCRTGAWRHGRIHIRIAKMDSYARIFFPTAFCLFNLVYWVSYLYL

Compound | α2-GABAAR Relative Efficacy (vs. Diazepam) (human α2β3γ2 GABAARs) | Ki [1] [nM] | Ki [2] [nM] | α3-GABAAR Relative Efficacy (vs. Diazepam) (human α3β3γ2 GABAARs)
CCCNC(=O)c1c(N)c2cccc(-c3nc(C)ccc3F)c2[nH]c1=O [Example 7, 4-Amino-8-(3-fluoro-6-methyl-2-pyridyl)-2-oxo-N-propyl-1H-quinoline-3-carboxamide] | 0.16 | 0.59 | 1.17 | 0.43
CCCNC(=O)c1c(N)c2cccc(-c3nc(CO)ccc3F)c2[nH]c1=O [Example 11, 4-Amino-8-[3-fluoro-6-(hydroxymethyl)-2-pyridyl]-2-oxo-N-propyl-1H-quinoline-3-carboxamide] | 0.32 | 2.13 | 4.38 | 0.24
CCCNC(=O)c1c(N)c2cccc(-c3cncc(CO)c3)c2[nH]c1=O [Example 25, 4-Amino-8-[5-(hydroxymethyl)-3-pyridyl]-2-oxo-N-propyl-1H-quinoline-3-carboxamide] | 0.15 | 3.4 |  | 0.10
CCCNC(=O)c1c(N)c2cccc(-c3ccnc(CO)c3)c2[nH]c1=O [Example 32, 4-Amino-8-[2-(hydroxymethyl)-4-pyridyl]-2-oxo-N-propyl-1H-quinoline-3-carboxamide] | 0.24 | 3.09 | 6.86 | 0.29
CCCNC(=O)c1c(N)c2cccc(-c3cc(OC)ncc3F)c2[nH]c1=O [Example 34, 4-Amino-8-(5-fluoro-2-methoxy-4-pyridyl)-2-oxo-N-propyl-1H-quinoline-3-carboxamide] | 0.49 | 0.68 | 1.58 | 0.47
CCCNC(=O)c1c(N)c2cccc(-c3nc(OC)ncc3F)c2[nH]c1=O [Example 42, 4-Amino-8-(5-fluoro-2-methoxy-pyrimidin-4-yl)-2-oxo-N-propyl-1H-quinoline-3-carboxamide] | 0.25 | 0.56 | 0.64 | 0.21
CCCNC(=O)c1c(N)c2cccc(-c3nc(C)[nH]c3C)c2[nH]c1=O [Example 52, 4-Amino-8-(2,5-dimethyl-1H-imidazol-4-yl)-2-oxo-N-propyl-1H-quinoline-3-carboxamide] | 0.53 | 6.61 |  | 0.41
[2H]C([2H])([2H])C([2H])([2H])C([2H])([2H])NC(=O)c1c(N)c2cccc(-c3cnccc3OC)c2[nH]c1=O [Example 62, 4-Amino-8-(4-methoxypyridin-3-yl)-2-oxo-N-(propyl-d7)-1,2-dihydroquinoline-3-carboxamide] | 0.28 | 6.85 | 5.41 | 0.44
COc1ccncc1-c1cccc2c(N)c(C(=O)NCCC(F)(F)F)c(=O)[nH]c12 [Example 69, 4-Amino-8-(4-methoxypyridin-3-yl)-2-oxo-N-(3,3,3-trifluoropropyl)-1,2-dihydroquinoline-3-carboxamide] | 0.6 | 26.5 | 60.5 | 0.59
CCCNC(=O)c1c(N)c2cccc(-c3cc(OCc4ccccn4)ccc3F)c2[nH]c1=O [Example 85, 4-Amino-8-[2-fluoro-5-(2-pyridylmethoxy)phenyl]-2-oxo-N-propyl-1H-quinoline-3-carboxamide] | 0.32 | 0.3 | 0.7 | 0.42
CCCNC(=O)c1c(N)c2cccc(-c3cc(OCc4cccc(C#N)n4)ccc3F)c2[nH]c1=O [Example 91, 4-Amino-8-(5-((6-cyanopyridin-2-yl)methoxy)-2-fluorophenyl)-2-oxo-N-propyl-1,2-dihydroquinoline-3-carboxamide] | 0.18 | 0.46 | 1.3 | 0.29
CCCNC(=O)c1c(N)c2cccc(-c3cc(OCc4ccc(F)cn4)ccc3F)c2[nH]c1=O [Example 92, 4-Amino-8-[2-fluoro-5-[(5-fluoro-2-pyridyl)methoxy]phenyl]-2-oxo-N-propyl-1H-quinoline-3-carboxamide] | 0.21 | 0.48 | 0.81 | 0.26
CCCNC(=O)c1c(N)c2cccc(-c3cc(OCc4ccc(C)nc4)ccc3F)c2[nH]c1=O [Example 110, 4-Amino-8-[2-fluoro-5-[(6-methyl-3-pyridyl)methoxy]phenyl]-2-oxo-N-propyl-1H-quinoline-3-carboxamide] | 0.25 | 0.59 | 0.97 | 0.30
CCCNC(=O)c1c(N)c2cccc(-c3cccc(OCc4cccnc4)n3)c2[nH]c1=O [Example 111, 4-Amino-2-oxo-N-propyl-8-(6-(pyridin-3-ylmethoxy)pyridin-2-yl)-1,2-dihydroquinoline-3-carboxamide] | 0.27 | 0.23 | 0.41 | 0.47
